Assays:
B16F10 cells = experiment: Melanoma cell viability, 48 hours treatment, B16F10; assay type: cell-based, murine; settings: for effect on cell viability: B16F10; for IC50: Mus musculus, B16-F10, B16F10, 48 hours, read-out: IC50, reduction in cell viability
Method: (§1) The electrophysiology whole-cell patch clamp experiments occur within a minute. […] To determine their effect on melanoma cell survival, A375 and B16F10 were treated with QH-II-066, KRM-II-08, or diazepam for 48 hours.

A375 cells = experiment: Melanoma cell viability, 48 hours treatment, A375; assay type: cell-based, human; settings: for effect on cell viability: A375; for IC50: Homo sapiens, A-375, A375, 48 hours, read-out: IC50, reduction in cell viability
Method: as §1

GABAAR [1] = experiment: Whole-cell patch clamp electrophysiology in A375 melanoma cells; assay type: cell-based, human; settings: for mode of action at GABAAR from electrophysiology: A375 and B16F10 cells; for EC50: read-out: EC50, enhancement of the effect of GABA, [GABA]=1 μM, benzodiazepine 0-10 μM
Method: (§2) GABAAR is an anion (Cl—) channel that changes the transmembrane potential of cells, either depolarizing or hyperpolarizing depending upon channel directionality and activity of other membrane transport protein. To establish autonomous expression of GABAAR subunits in melanoma cell lines results in assembly of a functional ligand-dependent channel, electrophysiological testing was performed in human melanoma (A375) and murine (B16F10) lines. Patch clamp currents were recorded for A375 and B16F10. […] A fully functional benzodiazepine binding site requires assembly of a GABAAR with a canonical αβαβγ subunit stoichiometry.
(§3) Two benzodiazepines were tested (QH-II-066 and KRM-II-08). QH-II-066 and KRM-II-08 differ in having H and F at R2′ of the benzene ring of benzodiazepine, respectively.

GABAAR [2] = experiment: Whole-cell patch clamp electrophysiology in B16F10 melanoma cells; assay type: cell-based, murine; settings: for EC50: read-out: EC50, enhancement of the effect of GABA, [GABA]=1 μM, benzodiazepine 0-10 μM
Method: as §2, §3

[3] = test system: medulloblastoma cancer cells; settings: sustained incubation; cited from earlier work
[4] = test system: CD8+ T cells in B16F10-GP tumors; experiment: Immunophenotyping of tumor infiltrating lymphocytes of bilateral B16F10-GP tumors by flow cytometry; assay type: in vivo, C57BL/6 mice
Method: Mice were sacrificed and tumor infiltrating lymphocytes (TILs) were isolated, stained, and analyzed using flow cytometry. For cytokine analysis, TILs were stimulated with GP33 peptide for 6 hours in presence of GolgiStop™ and GolgiPlug™ and analyzed using flow cytometry. Tumor weight and Lymphocyte number per gram tumor.
To determine whether these apparent synergistic effects were mediated by an enhanced immune response, immunophenotyping of bilateral tumors was performed. […] (FIG. 4A-4E).

A375 and B16F10 cells = experiment: p53 expression and mitochondrial transmembrane potential in melanoma cells; assay type: cell-based, human and murine
Method: Changes induced by the benzodiazepine as a consequence of creating a net efflux of chloride anion, included an upregulation of TP53 and a depolarization of the mitochondrial transmembrane potential, ultimately resulting in apoptosis via the intrinsic mitochondria-mediated pathway. Thus, Experiments were performed to determine if benzodiazepine elicited a similar response in A375 and B16F10 cells.

[5] = non-human primates, previously tested; cited from earlier work
B16F10-GP tumor = experiment: B16F10-GP syngeneic melanoma murine model, bilateral flank tumors, tumor volume; assay type: in vivo, C57BL/6 mice
Method: The clinical observation of improved outcome for RT-ICI was analyzed using a murine model. B16F10-GP cells (0.5×10^5) were implanted in both right and left flanks of C57BL/6 mice (FIG. 1A). A single dose of radiation at 10 Gy was delivered to the right flank only using a 0.5 cm bolus material, on Day 10 after implanting the melanoma cells. Day 10 was chosen to allow for growth of tumor cells in flanks to the point where they became palpable. […] Anti-PD-L1 was given by intraperitoneal injection every third day.
Since melanoma cell viability in vitro was impaired by benzodiazepines QH-II-066 and KRM-II-08, experiments were performed to determine if benzodiazepine had anti-tumor activity in vivo. […] Given that immune checkpoint inhibitor efficacy is enhanced by radiation therapy, experiments were performed to determine whether RT combined with QH-II-066 synergize to control ipsilateral and abscopal tumor volume using the B16F10-GP syngeneic melanoma murine model. B16F10-GP melanoma cells were implanted (0.5×10^5) in both right and left flanks of C57BL/6 mice (FIG. 3B). A single dose of radiation (either 10 or 5 Gy) was delivered to the right flank on Day 10 after implanting of B16F10-GP cells. […] There was no difference when using different radiation doses (10 or 5 Gy).
Having observed that QH-II-066 could sensitize a melanoma tumor to radiation and that expression of genes with roles in the cytokine:cytokine receptor interaction pathway was enhanced, experiments were performed to determine if QH-II-066 was capable of potentiating the programmed death ligand 1 immune checkpoint inhibitor (anti-PD-L1). B16F10-GP melanoma cells were implanted in both the right and left flanks of C57BL/6 mice. Day 10 in both the right and left flanks injected i.p.: (i) QH-II-066 (10 mg/kg), then every day for seven days; (ii) anti-PD-L1 (200 μg), then every third day thereafter; (iii) QH-II-066 (10 mg/kg) and anti-PD-L1 (200 μg) at time and frequency detailed for monotherapy treatment groups (FIG. 5).
Having observed potentiation of radiation and anti-PD-L1 by QH-II-066 individually, there might be a more significant tumor response if we administered a ‘combo’ consisting of radiation (5 Gy), anti-PD-L1, plus QH-II-066. As before, B16F10-GP melanoma cells were implanted in both the right and left flanks of C57BL/6 mice (FIG. 5). The following experimental groups were tested: (i) vehicle alone control; (ii) QH-II-066 alone (10 mg/kg); (iii) a single morning dose of radiation (5 Gy) delivered to the right flank, followed by evening dose of QH-II-066 (10 mg/kg); (iv) anti-PD-L1 plus QH-II-066; (v) a single morning dose of radiation (5 Gy) delivered to the right flank, followed by an evening dose of anti-PD-L1; (vi) a triple or combo therapy, consisting of a single morning dose of radiation (5 Gy) delivered to the right flank, followed by evening doses of anti-PD-L1 plus QH-II-066. After initial i.p. injection of QH-II-066 on Day 10, QH-II-066 was injected i.p. every day for seven days; while anti-PD-L1 was injected i.p. every third day thereafter.
B16F10-GP cell line was grown in Dulbecco's Modified Eagle's medium (DMEM) supplemented with 10% Fetal Bovine Serum, 100 U/mL penicillin and 100 μg/mL streptomycin, 2 mM glutamine. Cells were cultured at 37° C. with 5% CO2.
B16F10-GP melanoma cells ([…]) were implanted in matrigel (25%) on right and left flank of 6-8 week old female C57BL/6 mice (Jackson Laboratories, Bar Harbor, Me.). […]

Structure (SMILES)	effect on cell viability (B16F10 cells)	effect on cell viability (A375 cells)	IC50 (B16F10 cells) [µM]	IC50 (A375 cells) [nM]	mode of action at GABAAR from electrophysiology (GABAAR [1])	EC50 (GABAAR [1]; A375 cells) [nM]	EC50 (GABAAR [2]) [nM]	effectiveness in impairing cell viability versus diazepam [3]	other results
CC(=O)[C@H]1CC[C@H]2[C@@H]3CC[C@H]4C[C@H](O)CC[C@]4(C)[C@H]3CC[C@]12C [Allopregnanolone, allopregnanolone, reference compound]	does not impair	does not impair	–	–	–	–	–	–	–
NCCCC(=O)O [GABA, gamma-aminobutyric acid, reference compound]	–	–	–	–	–	–	–	–	maximal response to GABA (current) (GABAAR [1]; A375 cells, patch clamp, n=8): −230±41 pA; maximal response to GABA (current) (GABAAR [2]; patch clamp, n=6): −430±70 pA
C#Cc1ccc2c(c1)C(c1ccccc1F)=NCC(=O)N2C [KRM-II-08, 7-ethynyl-5-(2-fluorophenyl)-1-methyl-1,3-dihydro-2H-benzo[e][1,4]diazepin-2-one]	–	–	6.1 ± 0.8	1330 ± 80	GABAAR positive allosteric modulators	1700 ± 200	200 ± 100	more than an order of magnitude improved effectiveness	–
C#Cc1ccc2c(c1)C(c1ccccc1)=NCC(=O)N2C [QH-II-066, 7-ethynyl-1-methyl-5-phenyl-1,3-dihydro-2H-benzo[e][1,4]diazepin-2-one]	–	–	8.2 ± 0.9	2700 ± 200	GABAAR positive allosteric modulators	900 ± 400	160 ± 90	more than an order of magnitude improved effectiveness	CD8+ T cell infiltration of ipsilateral tumor, radiation in combination with QH-II-066 ([4]; 10 or 5 Gy plus QH-II-066, compared to vehicle): enhanced infiltration of CD8+ T cells; CD8+ T cell infiltration of tumor, QH-II-066 alone ([4]; QH-II-066 10 mg/kg alone, compared to vehicle): did not induce CD8+ T cell infiltration; antigen-specific, poly-functional T cells (expressing IFN-γ and TNF-α) in ipsilateral and contralateral tumors ([4]; ipsilateral radiation therapy + systemic QH-II-066): significant increase; expression of p53 (A375 and B16F10 cells): enhanced expression of p53; time to depolarization of the mitochondrial transmembrane potential (A375 and B16F10 cells): ≤ 10 min; adverse side effects or toxicity [5]: without any adverse side effects or toxicity; ipsilateral and abscopal tumor effect, combo of radiation, anti-PD-L1 and QH-II-066 (B16F10-GP tumor; 5 Gy right flank Day 10, then anti-PD-L1 200 μg every third day plus QH-II-066 10 mg/kg daily 7 days): complete tumor regression in some animals; B16F10-GP tumor growth, monotherapy dose response (B16F10-GP tumor; 10, 25 and 50 mg/kg i.p. daily for a week, negligible difference between 25 and 50 mg/kg): dose-dependent reduction; anti-tumor effect on ipsilateral and contralateral tumor, combination with radiation therapy (B16F10-GP tumor; 10 or 5 Gy right flank Day 10, then QH-II-066 10 mg/kg daily 7 days): strongly synergistic anti-tumor effect; tumor volume, dual therapy QH-II-066 and anti-PD-L1 (B16F10-GP tumor; QH-II-066 10 mg/kg daily 7 days plus anti-PD-L1 200 μg every third day): most significant reduction in tumor volume; tumor volume, monotherapy (B16F10-GP tumor; QH-II-066 10 mg/kg i.p. daily 7 days or anti-PD-L1 200 μg i.p. every third day, from Day 10): comparable reductions in tumor volume
CN1C(=O)CN=C(c2ccccc2)c2cc(Cl)ccc21 [diazepam, reference compound]	no effect	no effect	–	–	–	–	–	–	–
